# Test results: patent US20140271734A1, “BILE ACID RECYCLING INHIBITORS FOR TREATMENT OF BARRETT'S ESOPHAGUS AND GASTROESOPHAGEAL REFLUX DISEASE” (LUMENA PHARMACEUTICALS, INC., priority 2013, published 2014)
# Marks after values point to notes of the source that are not given here.
# Tested on: serum total bile acid (SBA)
# Experiment: Duration of action of LUM001 on dog SBA, Method 1 (two meals)
# Assay type: in vivo, beagle dogs
# Conditions: 0.2 mg/kg p.o. at 1 hr; full meal 0 hr, half meal 4 hr; 4.5 hr
# Description: Male beagle dogs were obtained from Covance Research Products, Cumberland Va. or Marshall Farms USA, Inc., North Rose N.Y. A total of 20 dogs, 1 to 5 years old, 6.8 to 15.6 kg body weight, were used in these experiments. The dogs were conditioned to a 12 hour light/dark cycle and maintained on a feeding restriction of 1 hour per day access to food (Richman Standard Certified Canine Diet #5007, PMI Nutrition, Inc., St. Louis Mo.) from 7 to 8 AM. They were trained to eat a special meal promptly within 20 minutes when presented (1 can. 397 g, Evanger's 100% Beef for Dogs, Evanger's Dog and Cat Food Co., Inc., Wheeling Ill., mixed with 50 g of sharp cheddar cheese.).
# SBA was measured by an enzymatic assay. SBA values are expressed as μg of total bile acids/ml of serum.
# In dogs a single experimental meal produces a postprandial rise in SBA that is elevated to a peak at 1 hour after feeding and constant for an additional 3 hours. Previous experiments (2) indicate that LUM001 remains active for more than 4.5 hours. To measure the duration of action of an ASBT inhibitor using postprandial SBA levels requires that in the control situation the SBA levels remain elevated and constant for the entire period of compound action, or that the compound be administered long before the postprandial rise occurs, and remain active in the empty digestive system for long periods before feeding. […]
smiles,measurement,value
CCCCC1(CCCC)CS(=O)(=O)c2ccc(N(C)C)cc2[C@@H](c2ccc(OCc3ccc(C[N+]45CCN(CC4)CC5)cc3)cc2)[C@H]1O [LUM001],"Serum Bile Acid, mean",2.5* μg/ml
